Measurements taken from paper PMC8594587 (Journal of medicinal chemistry, 2021).

Tests used:
HIV-2 ROD = experiment: Anti-HIV-2 ROD activity in MT-4 cells, MTT method; type: cell-based; settings: Human immunodeficiency virus 2, MT4, read-out: EC50 ROD
in vivo = settings: Sprague-Dawley, rat, iv, 2 mg/kg
Kunming mice = experiment: Acute toxicity test in Kunming mice; type: in vivo; settings: Kunming mice
[1] = Acute toxicity test in Kunming mice; type: in vivo; settings: Kunming, mouse, in vivo, po
[2] = tested on: HIV-1 K103N+Y181C (RES056); experiment: microbe, parasite or virus in culture; type: cell-based; settings: Human immunodeficiency virus 1, MT4, read-out: EC50 RES056
HIV-1 F227L+V106A = type: cell-based; settings: Human immunodeficiency virus 1, MT4, read-out: EC50 F227L+V106A

## Cc1cc(C#N)cc(C)c1Oc1nc(NC2CCN(Cc3ccc(S(N)(=O)=O)cc3)CC2)ncc1-c1cccs1 [Compound 11a, 4-((4-((4-(4-cyano-2,6-dimethylphenoxy)-5-(thiophen-2-yl)pyrimidin-2-yl)amino)piperidin-1-yl)methyl)benzenesulfonamide]
HIV-2 ROD
  EC50: ≥ 33.4 µM

## Cc1cc(C#N)cc(C)c1Oc1nc(NC2CCN(Cc3ccc(S(N)(=O)=O)cc3)CC2)ncc1-c1ccsc1 [Compound 12a, 4-((4-((4-(4-cyano-2,6-dimethylphenoxy)-5-(thiophen-3-yl)pyrimidin-2-yl)amino)piperidin-1-yl)methyl)benzenesulfonamide]
HIV-2 ROD
  EC50: > 6.12 µM

## Cc1cc(C#N)cc(C)c1Oc1nc(NC2CCN(Cc3ccc(S(C)(=O)=O)cc3)CC2)ncc1-c1ccco1 [Compound 13b, 4-((5-(furan-2-yl)-2-((1-(4-(methylsulfonyl)benzyl)piperidin-4-yl)amino)pyrimidin-4-yl)oxy)-3,5-dimethylbenzonitrile]
HIV-2 ROD
  EC50: > 7.46 µM

## Cc1cc(C#N)cc(C)c1Oc1nc(NC2CCN(Cc3ccc(C(N)=O)cc3)CC2)ncc1-c1ccoc1 [Compound 14c, 4-((4-((4-(4-cyano-2,6-dimethylphenoxy)-5-(furan-3-yl)pyrimidin-2-yl)amino)piperidin-1-yl)methyl)benzamide]
HIV-2 ROD
  EC50: > 182 µM

## Cc1cc(C#N)cc(C)c1Oc1nc(NC2CCN(Cc3ccc(C(N)=O)cc3)CC2)ncc1-c1ccncc1 [Compound 16c, 4-((4-((4-(4-cyano-2,6-dimethylphenoxy)-5-(pyridin-4-yl)pyrimidin-2-yl)amino)piperidin-1-yl)methyl)benzamide]
In vivo
  Tmax: 1.98 min
HIV-2 ROD
  EC50: > 36 µM
Kunming mice; single oral dose
  acute toxicity, tolerability: well-tolerated up to a dose of 2000 mg/kg with no acute toxicity
Kunming mice; single oral dose 2000 mg/kg
  body weight change: no abnormality of body weight changed
Kunming mice; single oral dose 2000 mg/kg, subsequent two weeks
  toxic symptoms or mortality: did not exhibit any toxic symptoms or mortality
[1]
  LD50 at 2 weeks: > 2000 mg/kg

## Cc1cc(C#N)cc(C)c1Oc1nc(Nc2ccc(C#N)cc2)nc(N)c1Br [ETR, etravirine]
[2]
  EC50: 52.2 ± 24.2 nM
HIV-1 F227L+V106A
  EC50: 26.9 ± 2.3 nM
